In brackets after ≈: the same amount, converted by molar mass.
Experiments:
[1] = Solubility after 24 hrs in Fasted State Simulated Intestinal Fluid (FaSSIF); type: physicochemical; details: Fasted State Simulated Intestinal Fluid (FaSSIF), thermodynamic from solid, 24 hrs at 37° C., nominal concentration 1 mg/mL (as free base)
Description: Selected compounds were further screened for solubility in Fasted State Simulated Intestinal Fluid (FaSSIF).
Approximately 1 mg of test compound is accurately weighed into a 2 mL vial. Volumes of the FaSSIF solution (pre-heated to 37° C.) were added to a vial to give a nominal concentration of 1 mg/mL (as free base). The FaSSIF solution was prepared on the day of use. The samples were vortexed before being placed in a Titramax 1000 shaker for 24 hrs at 37° C. and approximately 500 rpm. The samples were transferred to eppendorf tubes and centrifuged at 15,000 g (r.c.f.) for 10 min at 37° C. and analysed for concentration of test compound by LCMS.

Human FXIa = Human FXIa (Homo sapiens (Human), UniProt P03951); assay: Determination of the % inhibition for FXIa (fluorogenic substrate Z-Gly-Pro-Arg-AFC; 40 μM or IC50); type: biochemical
In short: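 Inhibition measured from initial reaction rate, followed as absorbance change at 410 nm, with substrate Z-Gly-Pro-Arg-AFC at 25 °C. Compound tested at a single 40 μM dose for percent inhibition, or across several concentrations to derive IC50 against human FXIa.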

Human KLK1 = Human KLK1 (Homo sapiens (Human), UniProt P06870); assay: Determination of the IC50 for KLK1 (fluorogenic substrate H-DVal-Leu-Arg-AFC); type: biochemical
In short: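 Inhibition read as initial rate via optical absorbance change at 410 nm, giving IC50. Reactions combined human KLK1, the substrate H-DVal-Leu-Arg-AFC and varied compound concentrations at 25° C.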

Human plasma kallikrein = Human plasma kallikrein (Homo sapiens (Human), UniProt P03952); assay: Determination of the IC50 for plasma kallikrein (fluorogenic substrate H-DPro-Phe-Arg-AFC); type: biochemical; details: class symbols A-D, read-out: IC50 (human PKal)
In short: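 IC50 values come from initial rates, monitored as the change in absorbance at 410 nm, of residual enzyme activity. Test compound was present at various concentrations with the fluorogenic substrate H-DPro-Phe-Arg-AFC, and the reaction was run at 25° C.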

Human KLK1, sequence (P06870 25-262): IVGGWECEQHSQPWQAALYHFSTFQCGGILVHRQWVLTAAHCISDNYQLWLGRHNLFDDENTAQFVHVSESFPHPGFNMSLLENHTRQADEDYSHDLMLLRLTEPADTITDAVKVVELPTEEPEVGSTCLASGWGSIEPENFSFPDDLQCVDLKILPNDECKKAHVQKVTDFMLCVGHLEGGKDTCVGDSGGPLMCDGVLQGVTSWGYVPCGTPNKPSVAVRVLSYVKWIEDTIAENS
Human FXIa, sequence (P03951 388-625): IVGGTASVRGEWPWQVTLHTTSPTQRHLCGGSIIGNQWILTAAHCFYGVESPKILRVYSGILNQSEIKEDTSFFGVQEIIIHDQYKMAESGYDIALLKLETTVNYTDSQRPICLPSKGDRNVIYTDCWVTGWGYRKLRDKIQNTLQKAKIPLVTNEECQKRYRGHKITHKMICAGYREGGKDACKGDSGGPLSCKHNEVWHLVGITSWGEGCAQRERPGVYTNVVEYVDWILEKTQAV
Human FXIa, sequence (P03951 19-387 partner): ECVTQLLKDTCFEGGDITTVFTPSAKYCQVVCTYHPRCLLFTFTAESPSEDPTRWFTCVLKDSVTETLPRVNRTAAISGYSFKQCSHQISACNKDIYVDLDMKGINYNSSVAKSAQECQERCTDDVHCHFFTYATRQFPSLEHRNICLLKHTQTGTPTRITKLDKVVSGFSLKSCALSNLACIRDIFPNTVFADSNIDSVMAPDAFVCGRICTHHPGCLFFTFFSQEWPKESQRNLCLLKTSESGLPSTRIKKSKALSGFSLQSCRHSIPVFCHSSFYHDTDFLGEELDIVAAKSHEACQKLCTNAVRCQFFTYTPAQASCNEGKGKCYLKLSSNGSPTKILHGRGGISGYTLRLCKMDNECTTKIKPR
Human plasma kallikrein, sequence (P03952 391-638): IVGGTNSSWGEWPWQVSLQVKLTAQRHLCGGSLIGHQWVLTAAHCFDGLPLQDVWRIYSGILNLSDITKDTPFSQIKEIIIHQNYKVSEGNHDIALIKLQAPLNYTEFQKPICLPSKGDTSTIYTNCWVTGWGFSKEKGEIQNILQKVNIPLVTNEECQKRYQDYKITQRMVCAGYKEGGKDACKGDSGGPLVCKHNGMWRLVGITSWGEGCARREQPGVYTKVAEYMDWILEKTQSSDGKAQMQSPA
Human plasma kallikrein, sequence (P03952 20-390 partner): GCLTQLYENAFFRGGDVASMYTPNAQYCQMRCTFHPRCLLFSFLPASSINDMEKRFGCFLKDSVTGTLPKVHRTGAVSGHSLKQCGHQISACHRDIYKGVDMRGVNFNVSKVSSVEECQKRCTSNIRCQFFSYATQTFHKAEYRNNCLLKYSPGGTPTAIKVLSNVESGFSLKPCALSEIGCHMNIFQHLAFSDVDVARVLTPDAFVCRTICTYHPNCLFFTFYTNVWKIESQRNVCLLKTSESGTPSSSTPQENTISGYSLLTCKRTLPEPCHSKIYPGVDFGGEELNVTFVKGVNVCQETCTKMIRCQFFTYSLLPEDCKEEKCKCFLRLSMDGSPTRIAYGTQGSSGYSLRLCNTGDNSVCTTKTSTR

Row | solubility at 24 h [1] [µg/mL] | IC50 (Human FXIa) [µM] | IC50 (Human KLK1) [µM] | IC50 (Human plasma kallikrein) [µM] | SMILES
1 | 720 (≈ 1230 µM) | > 40 | > 40 | < 0.01 | CCN1CCc2cc(Cn3cc(C(=O)NCc4c(-n5cnc(C(F)F)n5)ccc(OC)c4F)c(COC)n3)ccc2C1 [Example 50, N-({6-[3-(difluoromethyl)-1,2,4-triazol-1-yl]-2-fluoro-3-methoxyphenyl}methyl)-1-[(2-ethyl-3,4-dihydro-1H-isoquinolin-6-yl)methyl]-3-(methoxymethyl)pyrazole-4-carboxamide]
2 | 770 (≈ 1280 µM) | > 40 | > 40 | < 0.01 | CCN1CCc2cc(Cn3cc(C(=O)NCc4c(-n5cnc(C(F)(F)F)n5)ccc(OC)c4F)c(COC)n3)ccc2C1 [Example 51, 1-[(2-ethyl-3,4-dihydro-1H-isoquinolin-6-yl)methyl]-N-({2-fluoro-3-methoxy-6-[3-(trifluoromethyl)-1,2,4-triazol-1-yl]phenyl}methyl)-3-(methoxymethyl)pyrazole-4-carboxamide]
3 | 900 (≈ 1600 µM) | > 40 | > 40 | 0.01 to 0.03 | COCc1nn(Cc2cnc3c(c2)CCN(C(C)C)C3)cc1C(=O)NCc1c(-n2cc(C)nn2)ccc(OC)c1F [Example 117, N-{[2-fluoro-3-methoxy-6-(4-methyl-1,2,3-triazol-1-yl)phenyl]methyl}-1-[(7-isopropyl-6,8-dihydro-5H-1,7-naphthyridin-3-yl)methyl]-3-(methoxymethyl)pyrazole-4-carboxamide]
4 | 930 (≈ 1690 µM) | 9.9 | > 40 | < 0.01 | COCc1nn(Cc2cc3c(cc2F)CCN(C)C3)cc1C(=O)NCc1c(-n2cc(C)nn2)ccc(OC)c1F [Example 118, 1-[(6-fluoro-2-methyl-3,4-dihydro-1H-isoquinolin-7-yl)methyl]-N-{[2-fluoro-3-methoxy-6-(4-methyl-1,2,3-triazol-1-yl)phenyl]methyl}-3-(methoxymethyl)pyrazole-4-carboxamide]
5 | 730 (≈ 1270 µM) | > 40 | > 40 | < 0.01 | COCc1nn(Cc2ccc3c(c2)CCN(C(C)C)CC3)cc1C(=O)NCc1c(-n2cc(C)nn2)ccc(OC)c1F [Example 122, N-{[2-fluoro-3-methoxy-6-(4-methyl-1,2,3-triazol-1-yl)phenyl]methyl}-1-[(3-isopropyl-1,2,4,5-tetrahydro-3-benzazepin-7-yl)methyl]-3-(methoxymethyl)pyrazole-4-carboxamide]
6 | 650 (≈ 1190 µM) | > 40 | > 40 | < 0.01 | COc1ccc(-n2cc(C)nn2)c(CNC(=O)c2cn(Cc3cc4n(n3)CCN(C)C4)nc2C(F)(F)F)c1F [Example 125, N-{[2-fluoro-3-methoxy-6-(4-methyl-1,2,3-triazol-1-yl)phenyl]methyl}-1-({5-methyl-4H,6H,7H-pyrazolo[1,5-a]pyrazin-2-yl}methyl)-3-(trifluoromethyl)pyrazole-4-carboxamide]
7 | 50 (≈ 96 µM) | > 40 | > 40 | 0.1 to 1 | COCc1nn(Cc2ccc3c(c2)COCC3)cc1C(=O)NCc1c(-n2cc(C)nn2)ccc(OC)c1F [Example 133, 1-(3,4-dihydro-1H-2-benzopyran-7-ylmethyl)-N-{[2-fluoro-3-methoxy-6-(4-methyl-1,2,3-triazol-1-yl)phenyl]methyl}-3-(methoxymethyl)pyrazole-4-carboxamide]
8 | 730 (≈ 1380 µM) | > 40 | > 40 | < 0.01 | COc1ccc(-n2cc(C)nn2)c(CNC(=O)c2cn(Cc3cc4n(n3)CCN(C)C4)nc2C(F)F)c1F [Example 136, 3-(difluoromethyl)-N-{[2-fluoro-3-methoxy-6-(4-methyl-1,2,3-triazol-1-yl)phenyl]methyl}-1-({5-methyl-4H,6H,7H-pyrazolo[1,5-a]pyrazin-2-yl}methyl)pyrazole-4-carboxamide]
9 | 810 (≈ 1500 µM) | 21.9 | > 40 | < 0.01 | COc1ccc(-n2cc(C)nn2)c(CNC(=O)c2cn(Cc3cnc4c(c3)CCN(C)C4)nc2C(F)F)c1F [Example 137, 3-(difluoromethyl)-N-{[2-fluoro-3-methoxy-6-(4-methyl-1,2,3-triazol-1-yl)phenyl]methyl}-1-[(7-methyl-6,8-dihydro-5H-1,7-naphthyridin-3-yl)methyl]pyrazole-4-carboxamide]
10 | > 1000 | > 40 | > 40 | 0.01 to 0.03 | COc1ccc(-n2cc(C)nn2)c(CNC(=O)c2cn(Cc3ccc4c(n3)CCN(C)C4)nc2C(F)(F)F)c1F [Example 138, N-{[2-fluoro-3-methoxy-6-(4-methyl-1,2,3-triazol-1-yl)phenyl]methyl}-1-[(6-methyl-7,8-dihydro-5H-1,6-naphthyridin-2-yl)methyl]-3-(trifluoromethyl)pyrazole-4-carboxamide]
11 | > 1000 | > 40 | > 40 | 0.01 to 0.03 | COCc1nc(C(=O)NCc2c(-n3cc(C)nn3)ccc(OC)c2F)cn1Cc1ccc2c(c1)CN(C(C)C)C2 [Example 147, N-{[2-fluoro-3-methoxy-6-(4-methyl-1,2,3-triazol-1-yl)phenyl]methyl}-1-[(2-isopropyl-1,3-dihydroisoindol-5-yl)methyl]-2-(methoxymethyl)imidazole-4-carboxamide]
12 | > 1000 | > 40 | > 40 | 0.01 to 0.03 | COCc1nc(C(=O)NCc2c(-n3cc(C)nn3)ccc(OC)c2F)cn1Cc1ccc2c(c1)CN(C)CC2 [Example 148, N-{[2-fluoro-3-methoxy-6-(4-methyl-1,2,3-triazol-1-yl)phenyl]methyl}-2-(methoxymethyl)-1-[(2-methyl-3,4-dihydro-1H-isoquinolin-7-yl)methyl]imidazole-4-carboxamide]
13 | 910 (≈ 1720 µM) | > 40 | > 40 | 0.01 to 0.03 | COc1ccc(-n2cc(C)nn2)c(CNC(=O)c2cn(Cc3ccc4c(c3)CN(C)CC4)c(C3CC3)n2)c1F [Example 149, 2-cyclopropyl-N-{[2-fluoro-3-methoxy-6-(4-methyl-1,2,3-triazol-1-yl)phenyl]methyl}-1-[(2-methyl-3,4-dihydro-1H-isoquinolin-7-yl)methyl]imidazole-4-carboxamide]
14 | 750 (≈ 1490 µM) | > 40 | > 40 | 0.01 to 0.03 | COc1ccc(-n2cc(C)nn2)c(CNC(=O)c2cn(Cc3ccc4c(c3)CN(C)CC4)c(C)n2)c1F [Example 151, N-{[2-fluoro-3-methoxy-6-(4-methyl-1,2,3-triazol-1-yl)phenyl]methyl}-2-methyl-1-[(2-methyl-3,4-dihydro-1H-isoquinolin-7-yl)methyl]imidazole-4-carboxamide]
15 | 1000 (≈ 2040 µM) | > 40 | > 40 | < 0.01 | COc1ccc(-n2cc(C)nn2)c(CNC(=O)c2cn(Cc3ccc4c(c3)CN(C)CC4)nn2)c1F [Example 152, N-{[2-fluoro-3-methoxy-6-(4-methyl-1,2,3-triazol-1-yl)phenyl]methyl}-1-[(2-methyl-3,4-dihydro-1H-isoquinolin-7-yl)methyl]-1,2,3-triazole-4-carboxamide]
16 | 950 (≈ 1880 µM) | > 40 | > 40 | < 0.01 | COc1ccc(-n2cc(C)nn2)c(CNC(=O)c2cn(Cc3ccc4c(c3)CN(C(C)C)C4)nn2)c1F [Example 153, N-{[2-fluoro-3-methoxy-6-(4-methyl-1,2,3-triazol-1-yl)phenyl]methyl}-1-[(2-isopropyl-1,3-dihydroisoindol-5-yl)methyl]-1,2,3-triazole-4-carboxamide]
17 | > 1000 | > 40 | > 40 | < 0.01 | COCc1nn(Cc2ccc3c(c2)CN(C)CC3)cc1C(=O)NCc1c(-n2cnc(C(F)F)n2)ccc(OC)c1Cl [Example 156, N-({2-chloro-6-[3-(difluoromethyl)-1,2,4-triazol-1-yl]-3-methoxyphenyl}methyl)-3-(methoxymethyl)-1-[(2-methyl-3,4-dihydro-1H-isoquinolin-7-yl)methyl]pyrazole-4-carboxamide]
18 | 820 (≈ 1590 µM) | > 40 | > 40 | < 0.01 | COc1ccc(-n2cc(C)nn2)c(CNC(=O)c2ccc(=O)n(Cc3ccc4c(c3)CN(C)CC4)c2)c1F [Example 160, N-{[2-fluoro-3-methoxy-6-(4-methyl-1,2,3-triazol-1-yl)phenyl]methyl}-1-[(2-methyl-3,4-dihydro-1H-isoquinolin-7-yl)methyl]-6-oxopyridine-3-carboxamide]
19 | > 1000 | > 40 | > 40 | < 0.01 | COc1ccc(-n2cc(C)nn2)c(CNC(=O)c2cncc(Cc3ccc4c(c3)CN(C)CC4)c2)c1F [Example 161, N-{[2-fluoro-3-methoxy-6-(4-methyl-1,2,3-triazol-1-yl)phenyl]methyl}-5-[(2-methyl-3,4-dihydro-1H-isoquinolin-7-yl)methyl]pyridine-3-carboxamide]

— patent US11613527B2, “Enzyme inhibitors” (KalVista Pharmaceuticals Limited, priority 2019, dated 2023)
